Patent US9018187B2, “Cationic lipids and methods for the delivery of therapeutic agents” (Protiva Biotherapeutics, Inc., priority 2009, dated 2015)
Entries after “also recorded” stand apart in the source; their conditions may differ.

What was measured:
[1] = test system: liver ApoB mRNA; assay: Liver ApoB mRNA knockdown by 1:57 SNALP with APOB siRNA in mice; assay type: in vivo, mouse; conditions: 1:57 SNALP, 6:1 L:D, IV 0.1 mg/kg, female Balb/c mice, 48 hours
Protocol: Each SNALP formulation was administered by intravenous (IV) injection at 0.1 mg/kg into female Balb/c mice (n=3 per group). Plasma total cholesterol and/or liver ApoB mRNA levels were evaluated at 48 hours after SNALP administration. For dose response studies, SNALP formulations were administered by IV injection at 0.01 mg/kg, 0.03 mg/kg, or 0.1 mg/kg into female Balb/c mice (n=3 per group). Liver ApoB mRNA levels were evaluated at 48 hours after SNALP administration.
1:57 SNALP formulations containing encapsulated APOB siRNA at a 6:1 lipid:drug (L:D) ratio were prepared with the following cationic lipids: (1) DLinDMA; (2) Linoleyl/Linolenyl DMA (“Lin/LenDMA”); (3) DPanDMA; (4) TLinDMA; (5) Linoleyl/C6:0 DMA (“Lin/6:0”); (6) C2-DPanDMA; (7) DLin-C2K-Pip (30H); and (8) DHep-C2K-DMA.
(§1) Each SNALP formulation was administered by intravenous (IV) injection at 0.1 mg/kg into female Balb/c mice (n=3 per group). Livers were colleted at 48 hours after SNALP administration and liver ApoB mRNA levels were evaluated by performing an ApoB/GAPDH QG assay. Table 2 provides a characterization of the SNALP formulations used in this in vivo study.
In another study, 1:57 SNALP formulations containing encapsulated APOB siRNA at a 6:1 L:D ratio were prepared with the following cationic lipids: (1) DLinDMA; (2) C2-DPanDMA; (3) DPan-C2K-DMA; (4) DPan-C3K-DMA; and (5) DPan-C1K6-DMA.
as §1, with “3” for “2”
For dose response studies, SNALP formulations were administered by IV injection at 0.01 mg/kg, 0.033 mg/kg, or 0.1 mg/kg into female Balb/c mice (n=3 per group). Liver ApoB mRNA levels were evaluated at 48 hours after SNALP administration by a branched DNA assay (QuantiGene assay) to assess ApoB mRNA relative to the housekeeping gene GAPDH.

[2] = Characterization of SNALP formulations (size, polydispersity, encapsulation); assay type: physicochemical; conditions: Table 5; for Initial Encaps. (%): 7:54 SNALP (PEG750-C-DMA 6.76 | cationic 54.06 | Chol 32.43 | DPPC 6.75 mol %) with PLK-1 siRNA; for Finished Product Encaps. (%) / Finished Product Poly / Finished Product Z-Avg (nm): 7:54 SNALP with PLK-1 siRNA
Protocol: In the context of nucleic acids, full encapsulation may be determined by performing a membrane-impermeable fluorescent dye exclusion assay, which uses a dye that has enhanced fluorescence when associated with nucleic acid. Specific dyes such as OliGreen® and RiboGreen® (Invitrogen Corp.; Carlsbad, Calif.) are available for the quantitative determination of plasmid DNA, single-stranded deoxyribonucleotides, and/or single- or double-stranded ribonucleotides. Encapsulation is determined by adding the dye to a liposomal formulation, measuring the resulting fluorescence, and comparing it to the fluorescence observed upon addition of a small amount of nonionic detergent. Detergent-mediated disruption of the liposomal bilayer releases the encapsulated nucleic acid, allowing it to interact with the membrane-impermeable dye. Nucleic acid encapsulation may be calculated as E=(Io−I)Io, where I and Io refer to the fluorescence intensities before and after the addition of detergent (see, Wheeler et al., Gene Ther., 6:271-281 (1999)). […]
(§2) Each SNALP formulation was administered by intravenous (IV) injection at 3 mg/kg into Scid mice containing Hep3B tumors (n=4 per group). Tumor tissue was colleted at 24 hours after SNALP administration and tumor PLK-1 mRNA levels were evaluated by performing a PLK-1/GAPDH QG assay. Table 5 provides a characterization of the SNALP formulations used in this in vivo study.

[3] = test system: tumor PLK-1 mRNA; assay: Tumor PLK-1 mRNA knockdown by 7:54 SNALP in Scid mice containing Hep3B tumors; assay type: in vivo, mouse; conditions: FIG. 11, 7:54 SNALP with PLK-1 siRNA, IV 3 mg/kg, 24 hours, PLK-1/GAPDH QG assay
Protocol: 7:54 SNALP formulations containing encapsulated PLK-1 siRNA were prepared with the following cationic lipids: (1) DLinDMA; (2) TLinDMA; (3) DLin-C1K-DMA (“DLin-K-DMA”); (4) DPanDMA; (5) DPan-C2-DMA (“C2-DPanDMA”); (6) DPan-C2K-DMA; (7) DPan-C3K-DMA; and (8) DPan-C1K6-DMA.
as §2

[4] = TNS assay, apparent pKa of cationic lipid in 1:57 SNALP; conditions: 1:57 SNALP formulation containing encapsulated APOB siRNA
Protocol: 1:57 SNALP formulations containing encapsulated APOB siRNA were prepared as described in Section VI above with the following cationic lipids: (1) DLinDMA; (2) DLenDMA; (3) γ-DLenDMA (“g-DLenDMA”); (4) C2-DLinDAP; (5) DLinPip (4-OH); (6) DLinPip; (7) DLinPip (3-OH); (8) DLinDEA; (9) DDocDMA; (10) DAraDMA; (11) TLinDMA; (12) DLin-C2K Pip (30H); (13) DHep-C2K-DMA; (14) DPanDMA; (15) C2-DPanDMA (“DPan-C2-DMA”); (16) DPan-C2K-DMA; (17) DPan-C3K-DMA; (18) DPan-K6-DMA (“DPan-C1K6-DMA”); and (19) C2-TLinDMA.
The apparent pKa of the cationic lipids present in these SNALP formulations was determined using a 2-(p-toluidinyl)-naphthalene-6-sodium sulfonate (TNS) assay. TNS is a negatively-charged indicator of membrane potential that is electrostatically attracted to positively charged membranes (see, Bailey and Cullis, Biochemistry, 33 12573-80 (1994)). Subsequent adsorption to the lipid membrane results in the immediate environment of the TNS becoming more lipophilic, removing the water molecules that otherwise quench TNS fluorescence. As a result, TNS measures the surface potential of the particle, wherein the more positive the surface potential, the greater the level of fluorescence. The surface pKa values of each SNALP formulation were determined by varying the local pH in the presence of TNS. By plotting fluorescence versus pH, the pKa of the cationic lipid can be estimated in the particle as the pH where fluorescence equals 50% of total fluorescence.

Row | SMILES | ApoB silencing activity (liver ApoB mRNA) ([1]; Example 16, FIG. 8, ApoB/GAPDH QG assay) | ApoB silencing activity (liver ApoB mRNA) ([1]; Example 16 second study, FIG. 9, 0.1 mg/kg) | Initial Encaps. (%) [2] | Finished Product Encaps. (%) [2] | Finished Product Poly [2] | Finished Product Z-Avg (nm) [2] | tumor PLK-1 mRNA silencing activity [3] | pKa [4]
1 | CC(C)CCCC(C)CCCC(C)CCCC(C)CCOCC(CCN(C)C)OCCC(C)CCCC(C)CCCC(C)CCCC(C)C (centres unmarked) [Compound C2-DPanDMA, 1,2-Diphytanyloxy-(N,N-dimethyl)-butyl-4-amine] | more potent compared to DLinDMA and substantially more potent compared to DPanDMA | more potent compared to DLinDMA; also recorded: greatest activity of all the phytanyl-containing cationic lipids tested | 86% | 100% | 0.06 | 81 nm | no difference in silencing activity | ~6.1
2 | CC(C)CCCC(C)CCCC(C)CCCC(C)CCOCC(CN(C)C)OCCC(C)CCCC(C)CCCC(C)CCCC(C)C (centres unmarked) [DPanDMA, 1,2-Diphytanyloxy-3-(N,N-dimethyl)-propylamine] | – | – | 75% | 100% | 0.08 | 76 nm | no difference in silencing activity | 5.5
